Measured values taken from patent US20220143003A1, “COMPOSITIONS AND METHODS TO TREAT NON-ALCOHOLIC FATTY LIVER DISEASES (NAFLD)” (Coherus Biosciences, Inc., priority 2018, published 2022).

Assays:
Format in all cases: in vivo, male C57BL/6JRj mice
DIO-NASH mice [1] = test: Absolute and relative liver weight at termination; conditions: for Absolute liver weight at termination / Liver weight at termination, relative (% of body weight): group mean
Description: Animals were terminated after 12 weeks of treatment in a non-fasting state. Animals were put under isoflurane anesthesia, the abdominal cavity was opened, and cardiac blood was drawn directly into a Vacuette of the right dimension and anticoagulant and mixed by inversion 5 times. Blood was placed at 4° C. until centrifugation at 3000×g for 10 minutes at 4° C. The plasma supernatants were transferred to new tubes and immediately frozen on dry ice and stored at −80° C. Upon necropsy, the whole liver was collected and weighed. The liver was sampled for histological and biochemical analyses as described below.
Absolute liver weight at termination (g). Values expressed as mean of n=12-14+SEM.
Liver weight at termination in relative (% of body weight) values. Values expressed as mean of n=12-14+SEM.

DIO-NASH mice [2] = test: Absolute and relative body weight, measured daily and at termination; conditions: for Absolute body weight at termination / Terminal relative body weight, percentage of starting body weight: group mean; for Terminal relative body weight, percentage of starting body weight: day 83/84/85, baseline day 0=100%
Description: The Diet-induced-obesity (DIO)-NASH mouse model was induced by feeding male C57BL/6JRj mice a high fat diet containing 40% fat with trans-fat, 20% fructose and 2% cholesterol (AMLN diet or D09100301, Research Diets Inc., USA). Induction of NASH was started at 5 weeks of age and mice were fed the AMLN diet for 36 weeks prior to study start resulting in NASH, which was confirmed by pre-biopsy prior to study start as described below.
Absolute body weight, BW, (g) was measured daily throughout the study period. Values expressed as mean of n=11-14+SEM (see FIG. 1).
Absolute body weight at termination (measured day 83/84/85). Values expressed as mean of n=12-14+SEM.
Relative BW, recorded as percentage of starting body weight (baseline day 0=100%), was measured daily throughout the study period. Values expressed as mean of n=11-14+SEM (see FIG. 2).
Terminal relative body weight (measured day 83/84/85), recorded as percentage of starting body weight (baseline day 0=100%). Values expressed as mean of n=12-14+SEM.

DIO-NASH mice [3] = test: Plasma alanine transaminase (ALT) at termination; conditions: for Plasma alanine transaminase (ALT) at termination: group mean
Description: For plasma biochemistry, tail blood was drawn directly through the capillary of a Microvette/Vacuette of the right dimension and anticoagulant and mixed by inversion 5 times. Blood was placed at 4° C. until centrifugation at 3000×g for 10 minutes at 4° C. The plasma supernatants were transferred to new tubes and immediately frozen on dry ice and stored at −80° C. until analysis.
Mouse insulin was measured in single determinations using the MSD platform (Meso Scale Diagnostics).
Plasma alanine transaminase (ALT) at termination (U/L). Values expressed as mean of n=11-14+SEM.

DIO-NASH mice [4] = test: Liver hydroxyproline (HP) at termination, colorimetric assay; conditions: for Relative liver hydroxyproline (HP) at termination / Total liver hydroxyproline (HP) at termination: group mean
Description: The liver post-biopsy for histological analyses was removed by dissection from the left lateral lobe, fixated in 4% formalin for 20-24 h, and subsequently embedded in paraffin. Liver biopsies for liver triglycerides and total cholesterol were dissected from the medial lobe, snap frozen in liquid nitrogen, and stored at −80° C., while liver biopsies for hydroxyproline were dissected from the caudal lobe (the entire lobe), snap frozen in liquid nitrogen and stored at −80° C. Finally, a liver sample for RNA isolation and gene expression analysis was dissected from the left lateral lobe, snap frozen in liquid nitrogen, and stored at −80° C. until processing.
For liver hydroxyproline (HP; a protein marker of fibrosis) quantification, liver samples were homogenized in 6 M HCl and hydrolyzed to degrade collagen. The samples were centrifuged, and the hydroxyproline content measured in duplicates in the supernatant, using a colorimetric assay (Quickzyme Biosciences) according to the manufacturer's instructions.
Relative liver hydroxyproline (HP) (μg/mg of liver) at termination. Values expressed as mean of n=12-14+SEM.
Total liver hydroxyproline (HP) (μg/liver) at termination. Values expressed as mean of n=12-14+SEM.

DIO-NASH mice [5] = test: Oral glucose tolerance test (OGTT), week 7; conditions: 6 h fasted, oral glucose 2 g/kg, group mean
Description: Animals were fasted 6 hours prior to oral glucose administration (2 g/kg). At the various time points after glucose administration, blood samples were collected into heparinized glass capillary tubes and immediately suspended in glucose/lactate system solution buffer (EKF-diagnostics, Germany). Blood glucose (BG) was measured using a BIOSEN c-Line glucose meter (EKF-diagnostics, Germany) according to the manufacturer's instructions. After the last blood sample, the animals were returned to the normal feeding schedule. The order of the animals were randomized before the procedure and mice were dosed with compounds just after the −60 minutes blood sample.
Oral glucose tolerance test (OGTT) in week 7. Temporal course of blood glucose levels during 6 h fasted OGTT. Oral glucose bolus (2 g/kg) at t=0 min.
Area under the curve calculated from the temporal course from 0-180 min OGTT. Values expressed as mean of n=12-14+SEM.

[6] = CHS-131 High dose (alone or combined)
[7] = day 83/84/85, CHS-131 High 30 mg/kg, empagliflozin 10 mg/kg, elafibranor 30 mg/kg PO, liraglutide 0.4 mg/kg SC, QD
[8] = CHS-131 High 30 mg/kg, empagliflozin 10 mg/kg, elafibranor 30 mg/kg PO, liraglutide 0.4 mg/kg SC, QD
[9] = DIO-NASH mice, 12 weeks of treatment, summary of data

Row | SMILES | Absolute liver weight at termination (DIO-NASH mice [1]; [6]) [g] | Liver weight at termination, relative (% of body weight) (DIO-NASH mice [1]; [6]) | Absolute body weight at termination (DIO-NASH mice [2]; [7]) [grams] | Terminal relative body weight, percentage of starting body weight (DIO-NASH mice [2]; [8]) [%] | Plasma alanine transaminase (ALT) at termination (DIO-NASH mice [3]; [6]) [U/L] | Relative liver hydroxyproline (HP) at termination (DIO-NASH mice [4]; [6]) | Total liver hydroxyproline (HP) at termination (DIO-NASH mice [4]; [6]) [μg/liver] | Area under the curve 0-180 min OGTT (blood glucose) (DIO-NASH mice [5]; [6]) | further results
1 | O=S(=O)(Nc1cc(Cl)c(Oc2cnc3ccccc3c2)c(Cl)c1)c1ccc(Cl)cc1Cl [CHS-131] | 3.14 | 8.15 % of body weight | 38.2 | 102 | 140 | 0.0802 μg/mg of liver | 250 | 1.66e+03 | Relative liver weight, effect in words (DIO-NASH mice [1]; DIO-NASH mice, compared to DIO mice administered vehicle only): No difference; Absolute liver weight at termination (DIO-NASH mice [1]; CHS-131 Low dose): 3.21 g; Liver weight at termination, relative (% of body weight) (DIO-NASH mice [1]; CHS-131 Low dose): 8.4 % of body weight; Body weight, effect in words (DIO-NASH mice [2]; compared to DIO mice administered vehicle only): tends to reduce; Absolute body weight at termination (DIO-NASH mice [2]; day 83/84/85, CHS-131 Low 10 mg/kg PO QD): 38.2 grams; Terminal relative body weight, percentage of starting body weight (DIO-NASH mice [2]; CHS-131 Low 10 mg/kg PO QD): 103%; Plasma ALT, effect in words (DIO-NASH mice [3]; [9]): reduced; Decrease of plasma alanine aminotransferase (ALT) (DIO-NASH mice [3]; DIO-NASH mice, compared to DIO mice administered vehicle only (placebo)): 30%; Plasma alanine transaminase (ALT) at termination (DIO-NASH mice [3]; CHS-131 Low dose): 163 U/L; Marker of fibrosis hydroxyproline, effect in words (DIO-NASH mice [4]; [9]): positive trends for improvement; Improvement of liver hydroxyproline level at termination (marker of fibrosis) (DIO-NASH mice [4]; DIO-NASH mice, compared to DIO mice administered vehicle only, significant): 30%; Relative liver hydroxyproline (HP) at termination (DIO-NASH mice [4]; CHS-131 Low dose): 0.0631 μg/mg of liver; Total liver hydroxyproline (HP) at termination (DIO-NASH mice [4]; CHS-131 Low dose): 205 μg/liver; Area under the curve 0-180 min OGTT (blood glucose) (DIO-NASH mice [5]; CHS-131 Low dose): 1.53e+03
2 | CSc1ccc(C(=O)/C=C/c2cc(C)c(OC(C)(C)C(=O)O)c(C)c2)cc1 [Elafibranor, reference compound] | 4.2 | 13.1 % of body weight | 31.8 | 86.5 | 144 | 0.0389 μg/mg of liver | 164 | 1.35e+03 | –
3 | OC[C@H]1O[C@@H](c2ccc(Cl)c(Cc3ccc(O[C@H]4CCOC4)cc3)c2)[C@H](O)[C@@H](O)[C@@H]1O [Empagliflozin, reference compound] | 3.37 | 8.48 % of body weight | 39.6 | 107 | 216 | 0.0747 μg/mg of liver | 233 | 1.31e+03 | –
